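Values below derive from 48-hour exposures of cells grown in 96-well plates, with endpoints linearly interpolated between the two concentrations bracketing the appropriate inhibition level. GI50: concentration for 50% inhibition of growth.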 Calls of active or inactive are those of the source. Cut-off read from the data, not from the text of the source: active = GI50 up to about 1.1 µM and inactive = higher.
Assays:
Experiment in all cases: growth of human tumour cells (NCI), 48 h
[1] = test system: M14
[2] = test system: LOX IMVI
[3] = test system: IGROV-1
[4] = test system: HL-60
[5] = test system: ACHN
[6] = test system: OVCAR-5
[7] = test system: RXF 393
[8] = test system: NCI-H460
[9] = test system: Hs-578T
[10] = test system: NCI/ADR-RES
[11] = test system: MDA-MB-435
[12] = test system: HT-29
[13] = test system: K562
[14] = test system: SK-MEL-28
[15] = test system: T47D
[16] = test system: BT-549
[17] = test system: UACC-257
[18] = test system: NCI-H522
[19] = test system: HCT-15

| Compound | GI50 [1] | GI50 [2] | GI50 [3] | GI50 [4] | GI50 [5] | GI50 [6] | GI50 [7] | GI50 [8] | GI50 [9] | GI50 [10] | GI50 [11] | GI50 [12] | GI50 [13] | GI50 [14] | GI50 [15] | GI50 [16] | GI50 [17] | GI50 [18] | GI50 [19] [µM] |
| --- | --- | --- | --- | --- | --- | --- | --- | --- | --- | --- | --- | --- | --- | --- | --- | --- | --- | --- | --- |
| O=[N+]([O-])/C=C/c1cc2ccc3ccccc3c2[nH]1 | 1.64 µM (inactive) | 1.23 µM (inactive) | 0.527 µM (active) | 2.12 µM (inactive) | 1.54 µM (inactive) | 2.29 µM (inactive) | 1.43 µM (inactive) | 2.11 µM (inactive) | 3.56 µM (inactive) | 2.42 µM (inactive) | 1.69 µM (inactive) | 2.19 µM (inactive) | 1.8 µM (inactive) | 2.01 µM (inactive) | 1.31 µM (inactive) | 1.89 µM (inactive) | 2.24 µM (inactive) | 0.851 µM (active) | 1.72 |
| C/C(=N\Nc1nc2cc(C)ccc2s1)c1ccccn1 | 0.417 µM (active) | 0.481 µM (active) | 0.199 µM (active) | 0.158 µM (active) | 0.25 µM (active) | 0.661 µM (active) | 3.63 µM (inactive) | 0.69 µM (active) | 1.29 µM (inactive) | 0.261 µM (active) | 0.982 µM (active) | 0.121 µM (active) | 0.0948 µM (active) | 1.61 µM (inactive) | 0.589 µM (active) | 6.22 µM (inactive) | 0.5 µM (active) | 0.148 µM (active) | 0.272 |
| COC(=O)CCCC(=O)/C(=N\Nc1ccc(Cl)cc1)Nc1c(Cl)cccc1Cl | > 92.5 µM (inactive) | 64.1 µM (inactive) | > 81.7 µM (inactive) | 7.06 µM (inactive) | > 87.9 µM (inactive) | > 100 µM (inactive) | 8.69 µM (inactive) | 26.7 µM (inactive) | 42.8 µM (inactive) | > 74.1 µM (inactive) | 76.7 µM (inactive) | 56.6 µM (inactive) | 48.1 µM (inactive) | > 89.3 µM (inactive) | > 46.5 µM (inactive) | > 100 µM (inactive) | 59 µM (inactive) | 28.4 µM (inactive) | 72.3 |
| CCOC(=O)C1(Cc2ccc(C)cc2)Cc2ccc(C)cc2C1=O (centres undefined) | 9.59 µM (inactive) | 12.4 µM (inactive) | 21.1 µM (inactive) | 2.55 µM (inactive) | 41.7 µM (inactive) | 52.5 µM (inactive) | 4.6 µM (inactive) | 27.9 µM (inactive) | 16.3 µM (inactive) | 5.01 µM (inactive) | 2.81 µM (inactive) | 5.43 µM (inactive) | 1.88 µM (inactive) | 20.2 µM (inactive) | 12.4 µM (inactive) | 10 µM (inactive) | 18.9 µM (inactive) | 6.34 µM (inactive) | 7.85 |
| COc1ccc2c3c(ccc2c1)NC(C(=O)O)CC3 (centres undefined) | 45.1 µM (inactive) | 46.5 µM (inactive) | 40.8 µM (inactive) | 26.1 µM (inactive) | 73.8 µM (inactive) | > 100 µM (inactive) | > 100 µM (inactive) | 49.8 µM (inactive) | 50.4 µM (inactive) | 46.3 µM (inactive) | 60.4 µM (inactive) | 45.2 µM (inactive) | 35.2 µM (inactive) | 67.8 µM (inactive) | 26.9 µM (inactive) | > 100 µM (inactive) | > 100 µM (inactive) | 29.2 µM (inactive) | 51.8 |
| Cc1nc(N)nc(N)c1N1CCN(Cc2ccccc2)CC1 | 13.3 µM (inactive) | 8.15 µM (inactive) | 19.9 µM (inactive) | 25.1 µM (inactive) | 12.6 µM (inactive) | > 37.8 µM (inactive) | 13.4 µM (inactive) | 5.87 µM (inactive) | 48 µM (inactive) | 12.8 µM (inactive) | 11.4 µM (inactive) | 11.8 µM (inactive) | 6.44 µM (inactive) | > 78.9 µM (inactive) | > 100 µM (inactive) | > 93.3 µM (inactive) | 9.64 µM (inactive) | 24.8 µM (inactive) | 9.42 |
| CN(C)c1ccc(C=C2C(=O)NC(=S)NC2=O)c2ccccc12 | > 100 µM (inactive) | 26.9 µM (inactive) | 36.1 µM (inactive) | 33.7 µM (inactive) | > 100 µM (inactive) | > 100 µM (inactive) | 26.3 µM (inactive) | > 100 µM (inactive) | 26.5 µM (inactive) | > 100 µM (inactive) | 38.9 µM (inactive) | > 100 µM (inactive) | 40.9 µM (inactive) | 77.4 µM (inactive) | > 100 µM (inactive) | 61 µM (inactive) | > 100 µM (inactive) | 18.5 µM (inactive) | 41.7 |
| CC(=O)N(C(C)=O)c1cc2c3c(c1)CCCN3CCC2 | > 10 µM (inactive) | > 10 µM (inactive) | > 10 µM (inactive) | > 10 µM (inactive) | > 10 µM (inactive) | > 10 µM (inactive) | > 10 µM (inactive) | > 10 µM (inactive) | > 10 µM (inactive) | > 10 µM (inactive) | > 10 µM (inactive) | > 10 µM (inactive) | > 10 µM (inactive) | > 10 µM (inactive) | > 10 µM (inactive) | > 10 µM (inactive) | > 10 µM (inactive) | > 10 µM (inactive) | > 10 |
| O=C(Nc1c(Cl)cccc1Cl)c1c(Cl)c(Cl)c(Cl)c(Cl)c1-c1nc2ccccc2[nH]1 | 22.1 µM (inactive) | 46.8 µM (inactive) | 14.2 µM (inactive) | > 100 µM (inactive) | 50.1 µM (inactive) | > 100 µM (inactive) | 18 µM (inactive) | > 100 µM (inactive) | 61.8 µM (inactive) | 51.1 µM (inactive) | 38.2 µM (inactive) | 26 µM (inactive) | 59.3 µM (inactive) | 70.6 µM (inactive) | 28 µM (inactive) | 56.9 µM (inactive) | > 100 µM (inactive) | 37 µM (inactive) | 98.9 |
| CN(CCN(C)Cc1ccc(Cl)c(Cl)c1)CCN1CCCC1 | 23.2 µM (inactive) | 13.4 µM (inactive) | 15.8 µM (inactive) | 17.5 µM (inactive) | > 43.3 µM (inactive) | 39.3 µM (inactive) | 18.5 µM (inactive) | 27.5 µM (inactive) | 9.04 µM (inactive) | 67.3 µM (inactive) | 7.82 µM (inactive) | 6.32 µM (inactive) | 9.16 µM (inactive) | 6.78 µM (inactive) | 57.9 µM (inactive) | 65.6 µM (inactive) | 9.16 µM (inactive) | 19.6 µM (inactive) | 37.2 |
| CCN(CC)CCSc1c2cc(OC)ccc2nc2ccc(OC)cc12 | 6.73 µM (inactive) | 2.17 µM (inactive) | 1.95 µM (inactive) | 5.3 µM (inactive) | 2.21 µM (inactive) | 15.8 µM (inactive) | 7.38 µM (inactive) | 9.75 µM (inactive) | 1.68 µM (inactive) | 7.67 µM (inactive) | 7.03 µM (inactive) | 2.05 µM (inactive) | – | 10.3 µM (inactive) | 1.93 µM (inactive) | 5.69 µM (inactive) | 4.35 µM (inactive) | 1.59 µM (inactive) | 2.86 |
| O=[N+]([O-])c1ccc2nnnn2c1 | 13.8 µM (inactive) | 5.7 µM (inactive) | 34.3 µM (inactive) | 16 µM (inactive) | 10.7 µM (inactive) | 41.4 µM (inactive) | > 100 µM (inactive) | 31.6 µM (inactive) | 5.38 µM (inactive) | 25.5 µM (inactive) | 11.5 µM (inactive) | 16.5 µM (inactive) | 3.18 µM (inactive) | 20.8 µM (inactive) | > 100 µM (inactive) | 23.3 µM (inactive) | 27.8 µM (inactive) | 3.39 µM (inactive) | 8.22 |
| CCOC(=O)C1=C(C)C(C(=O)OC)/C(=C/c2cccc3cccnc23)C1=O (centres undefined) | > 10 µM (inactive) | > 10 µM (inactive) | > 10 µM (inactive) | 9.82 µM (inactive) | > 10 µM (inactive) | > 10 µM (inactive) | > 10 µM (inactive) | > 10 µM (inactive) | > 10 µM (inactive) | > 10 µM (inactive) | > 10 µM (inactive) | > 10 µM (inactive) | > 10 µM (inactive) | > 10 µM (inactive) | > 10 µM (inactive) | > 10 µM (inactive) | > 10 µM (inactive) | > 10 µM (inactive) | > 10 |
| OC1C2CCCCN2C[C@@H](O)[C@H]1O (some centres undefined) | > 100 µM (inactive) | > 100 µM (inactive) | > 100 µM (inactive) | > 100 µM (inactive) | > 100 µM (inactive) | > 100 µM (inactive) | > 100 µM (inactive) | > 100 µM (inactive) | > 100 µM (inactive) | > 100 µM (inactive) | > 100 µM (inactive) | > 100 µM (inactive) | > 100 µM (inactive) | > 100 µM (inactive) | > 100 µM (inactive) | > 100 µM (inactive) | > 100 µM (inactive) | 76.6 µM (inactive) | > 100 |
| Oc1ccc(CNCc2ccccc2)c2cccnc12 | 0.27 µM (active) | 0.0308 µM (active) | 0.292 µM (active) | 0.294 µM (active) | 0.182 µM (active) | 1.22 µM (inactive) | 0.116 µM (active) | 0.034 µM (active) | 0.243 µM (active) | 0.959 µM (active) | 0.0841 µM (active) | 4.11 µM (inactive) | 0.138 µM (active) | 0.424 µM (active) | 0.0783 µM (active) | 0.0703 µM (active) | 0.262 µM (active) | 0.222 µM (active) | 0.0628 |
